Values of other authors as cited in patent publication US12156858B2, “Pharmaceutical compositions comprising levodopa, a dopamine decarboxylase inhibitor and a COMT inhibitor and method of administration thereof” (InTrance Medical Systems Inc., priority 2014, dated 2024).

Conditions: intake of levodopa alone

share metabolized to dopamine before levodopa reaches the brain: more than 90%
Structure (SMILES): N[C@@H](Cc1ccc(O)c(O)c1)C(=O)O [Levodopa, (−)-L-α-amino-β-(3,4-dihydroxybenzene) propanoic acid]
